Laboratory results from ChEMBL document CHEMBL1201862, “PubChem BioAssay data set” (2004).
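Following 48 hours of exposure in 96-well plates, responses at five concentrations were used to interpolate endpoints linearly. At the GI50, growth is halved.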 The source made the active and inactive calls. No stated cut-off is given here; in the data, active = GI50 up to about 1.1 µM and inactive = higher.

Tests used:
Test in all cases: growth of human tumour cells (NCI), 48 h
Hs-578T = system: Hs-578T
SK-MEL-28 = system: SK-MEL-28
MDA-MB-231 = system: MDA-MB-231
SF-268 = system: SF-268
K562 = system: K562
OVCAR-3 = system: OVCAR-3
SF-539 = system: SF-539
SK-OV-3 = system: SK-OV-3
DU-145 = system: DU-145
CAKI-1 = system: CAKI-1
HCT-15 = system: HCT-15
NCI/ADR-RES = system: NCI/ADR-RES
UACC-62 = system: UACC-62
SN12C = system: SN12C
PC-3 = system: PC-3
M14 = system: M14
KM12 = system: KM12
COLO 205 = system: COLO 205
SW-620 = system: SW-620
Malme-3M = system: Malme-3M

Row | SMILES | GI50 (Hs-578T) | GI50 (SK-MEL-28) | GI50 (MDA-MB-231) | GI50 (SF-268) | GI50 (K562) | GI50 (OVCAR-3) | GI50 (SF-539) | GI50 (SK-OV-3) | GI50 (DU-145) | GI50 (CAKI-1) | GI50 (HCT-15) [µM] | GI50 (NCI/ADR-RES) | GI50 (UACC-62) | GI50 (SN12C) | GI50 (PC-3) | GI50 (M14) | GI50 (KM12) | GI50 (COLO 205) | GI50 (SW-620) | GI50 (Malme-3M)
1 | O=C(Cc1ccccc1)NNc1nc(NNC(=O)c2ccncc2)nc(Nc2ccc([N+](=O)[O-])cc2)n1 | > 10 µM (inactive) | > 10 µM (inactive) | > 10 µM (inactive) | > 10 µM (inactive) | 6.19 µM (inactive) | > 10 µM (inactive) | > 10 µM (inactive) | > 10 µM (inactive) | > 10 µM (inactive) | > 10 µM (inactive) | 6.22 | > 10 µM (inactive) | 9.38 µM (inactive) | > 10 µM (inactive) | 2.7 µM (inactive) | > 10 µM (inactive) | > 10 µM (inactive) | > 10 µM (inactive) | > 10 µM (inactive) | > 10 µM (inactive)
2 | COc1ccc(NC(=O)CC(=O)n2nc(-c3ccccc3)c(/N=N/c3ccc(C)cc3)c2-c2ccccc2)cc1 | 16.6 µM (inactive) | > 91.6 µM (inactive) | 25.6 µM (inactive) | 21.6 µM (inactive) | > 85.3 µM (inactive) | 43 µM (inactive) | 25.4 µM (inactive) | 16.4 µM (inactive) | > 59.7 µM (inactive) | 55.3 µM (inactive) | > 100 | 25.7 µM (inactive) | 27.9 µM (inactive) | 38 µM (inactive) | > 41.4 µM (inactive) | 52.6 µM (inactive) | 65.6 µM (inactive) | > 100 µM (inactive) | 69.5 µM (inactive) | 31.5 µM (inactive)
3 | COc1ccc(C(=C(Cl)c2ccccc2)c2ccc(OC)cc2)cc1 | > 100 µM (inactive) | > 100 µM (inactive) | > 100 µM (inactive) | > 100 µM (inactive) | > 100 µM (inactive) | > 100 µM (inactive) | > 100 µM (inactive) | > 100 µM (inactive) | > 100 µM (inactive) | > 100 µM (inactive) | > 100 | > 100 µM (inactive) | > 100 µM (inactive) | > 100 µM (inactive) | > 100 µM (inactive) | > 100 µM (inactive) | > 100 µM (inactive) | > 100 µM (inactive) | > 100 µM (inactive) | > 100 µM (inactive)
4 | COc1ccc2cc(/C=N\NC(=O)Nc3ccc([N+](=O)[O-])cc3)ccc2c1 | 17.5 µM (inactive) | 14.6 µM (inactive) | 13.9 µM (inactive) | 12.8 µM (inactive) | 14.8 µM (inactive) | 18.4 µM (inactive) | 8.24 µM (inactive) | 11.9 µM (inactive) | 7.41 µM (inactive) | 13.5 µM (inactive) | 15.1 | 13.6 µM (inactive) | 13.8 µM (inactive) | 12.4 µM (inactive) | 11.8 µM (inactive) | 22.6 µM (inactive) | 11.3 µM (inactive) | 13.1 µM (inactive) | 17.5 µM (inactive) | 12.3 µM (inactive)
5 | COC(=O)NC(Nc1ccc(Cl)cc1Cl)(C(F)(F)F)C(F)(F)F | > 100 µM (inactive) | > 100 µM (inactive) | > 100 µM (inactive) | 60.4 µM (inactive) | 2.85 µM (inactive) | 79.6 µM (inactive) | 49 µM (inactive) | 73.6 µM (inactive) | 35.3 µM (inactive) | 24.5 µM (inactive) | 4.38 | 86.5 µM (inactive) | 5.2 µM (inactive) | 80.4 µM (inactive) | 15.1 µM (inactive) | 52.4 µM (inactive) | 14 µM (inactive) | 28.2 µM (inactive) | 30.9 µM (inactive) | > 100 µM (inactive)
6 | CSc1nc(C)c2c(n1)N(c1ccc(Cl)cc1)CC2 | > 100 µM (inactive) | > 100 µM (inactive) | 42.3 µM (inactive) | > 100 µM (inactive) | 88.3 µM (inactive) | > 100 µM (inactive) | 70.8 µM (inactive) | > 100 µM (inactive) | > 100 µM (inactive) | > 100 µM (inactive) | > 100 | > 100 µM (inactive) | > 100 µM (inactive) | > 100 µM (inactive) | > 100 µM (inactive) | > 100 µM (inactive) | > 100 µM (inactive) | > 100 µM (inactive) | > 100 µM (inactive) | > 100 µM (inactive)
7 | Cc1cc(-c2nc3cc(F)ccc3s2)ccc1NC(=O)C(C)N (stereo not given) | 4.95 µM (inactive) | 5.25 µM (inactive) | 3.77 µM (inactive) | 4.53 µM (inactive) | 5.62 µM (inactive) | 3.41 µM (inactive) | 10.4 µM (inactive) | 4.1 µM (inactive) | 4.42 µM (inactive) | 3.28 µM (inactive) | 2.65 | 4.79 µM (inactive) | 4.02 µM (inactive) | 4.32 µM (inactive) | 4.13 µM (inactive) | 4.93 µM (inactive) | 3.94 µM (inactive) | 9.23 µM (inactive) | 4.62 µM (inactive) | 15.2 µM (inactive)
8 | Cc1ccc(C(=N)c2ccccc2Cc2cccc3ccccc23)c2ccccc12 | > 100 µM (inactive) | > 100 µM (inactive) | > 100 µM (inactive) | > 100 µM (inactive) | 80 µM (inactive) | 79.1 µM (inactive) | > 100 µM (inactive) | > 100 µM (inactive) | > 100 µM (inactive) | > 100 µM (inactive) | 40.6 | > 100 µM (inactive) | 99.1 µM (inactive) | > 100 µM (inactive) | > 100 µM (inactive) | 32.3 µM (inactive) | > 100 µM (inactive) | 22.1 µM (inactive) | 71 µM (inactive) | > 100 µM (inactive)
9 | CC1CCC(=O)C(C(=O)CC2CC(=O)NC(=O)C2)C1 (stereo not given) | > 100 µM (inactive) | > 100 µM (inactive) | > 100 µM (inactive) | > 100 µM (inactive) | > 100 µM (inactive) | > 100 µM (inactive) | > 100 µM (inactive) | > 100 µM (inactive) | > 100 µM (inactive) | > 100 µM (inactive) | > 100 | > 100 µM (inactive) | > 100 µM (inactive) | > 100 µM (inactive) | > 100 µM (inactive) | > 100 µM (inactive) | > 100 µM (inactive) | > 100 µM (inactive) | > 100 µM (inactive) | > 100 µM (inactive)
10 | O=C(O)[C@@H]1C[C@@H](O)CN1C(=O)OCc1ccccc1 | > 100 µM (inactive) | > 100 µM (inactive) | > 100 µM (inactive) | > 100 µM (inactive) | > 100 µM (inactive) | > 100 µM (inactive) | > 100 µM (inactive) | > 100 µM (inactive) | > 100 µM (inactive) | > 100 µM (inactive) | > 100 | > 100 µM (inactive) | > 100 µM (inactive) | > 100 µM (inactive) | > 100 µM (inactive) | > 100 µM (inactive) | > 100 µM (inactive) | > 100 µM (inactive) | > 100 µM (inactive) | > 100 µM (inactive)
11 | Clc1cc(Cl)cc(/N=C/C=C/Nc2cc(Cl)cc(Cl)c2)c1 | 19.1 µM (inactive) | 25.3 µM (inactive) | 14.2 µM (inactive) | 18.9 µM (inactive) | 23.6 µM (inactive) | 13.7 µM (inactive) | 21.6 µM (inactive) | 35.5 µM (inactive) | 21 µM (inactive) | 15.2 µM (inactive) | 14.9 | 16.4 µM (inactive) | 19.7 µM (inactive) | 17.4 µM (inactive) | 16.4 µM (inactive) | 22.3 µM (inactive) | 16.2 µM (inactive) | 16.5 µM (inactive) | 19 µM (inactive) | 30.5 µM (inactive)
12 | O=C(NC1CCC(=O)N1C(=O)OCc1ccccc1)OCc1ccccc1 (stereo not given) | > 100 µM (inactive) | > 100 µM (inactive) | > 100 µM (inactive) | > 100 µM (inactive) | > 100 µM (inactive) | > 100 µM (inactive) | > 100 µM (inactive) | > 100 µM (inactive) | > 100 µM (inactive) | > 100 µM (inactive) | > 100 | > 100 µM (inactive) | > 100 µM (inactive) | > 100 µM (inactive) | > 100 µM (inactive) | > 100 µM (inactive) | > 100 µM (inactive) | > 100 µM (inactive) | > 100 µM (inactive) | > 100 µM (inactive)
13 | O=S(=O)(c1ccccc1)C1CN(Cc2ccccc2)CCN(Cc2ccccc2)C1 | 37.2 µM (inactive) | > 71 µM (inactive) | 39.2 µM (inactive) | 29.4 µM (inactive) | 5.97 µM (inactive) | 26.6 µM (inactive) | 77.6 µM (inactive) | > 71.6 µM (inactive) | 80.5 µM (inactive) | 24.4 µM (inactive) | 25 | 17.9 µM (inactive) | 11.4 µM (inactive) | 32.4 µM (inactive) | 8.71 µM (inactive) | 24.2 µM (inactive) | 58.3 µM (inactive) | 30 µM (inactive) | 24 µM (inactive) | 25.5 µM (inactive)
14 | COc1nc(C#CCCCC#N)nc(OC)n1 | 40.8 µM (inactive) | 15.5 µM (inactive) | 11.7 µM (inactive) | 27.3 µM (inactive) | 17.9 µM (inactive) | 13.3 µM (inactive) | 20.5 µM (inactive) | 90.6 µM (inactive) | 8.93 µM (inactive) | 12.8 µM (inactive) | 3.29 | 28.5 µM (inactive) | 9.62 µM (inactive) | 16.4 µM (inactive) | 13.2 µM (inactive) | 22.2 µM (inactive) | 16.9 µM (inactive) | 29.9 µM (inactive) | 15 µM (inactive) | 13.4 µM (inactive)
